Consider one compound from article PMC4933591 (Bioconjugate chemistry, 2015).

Data set [1] concerns the target T1, GLP-1R (Mus musculus, UniProt O35659).
T1 sequence (O35659 22-463): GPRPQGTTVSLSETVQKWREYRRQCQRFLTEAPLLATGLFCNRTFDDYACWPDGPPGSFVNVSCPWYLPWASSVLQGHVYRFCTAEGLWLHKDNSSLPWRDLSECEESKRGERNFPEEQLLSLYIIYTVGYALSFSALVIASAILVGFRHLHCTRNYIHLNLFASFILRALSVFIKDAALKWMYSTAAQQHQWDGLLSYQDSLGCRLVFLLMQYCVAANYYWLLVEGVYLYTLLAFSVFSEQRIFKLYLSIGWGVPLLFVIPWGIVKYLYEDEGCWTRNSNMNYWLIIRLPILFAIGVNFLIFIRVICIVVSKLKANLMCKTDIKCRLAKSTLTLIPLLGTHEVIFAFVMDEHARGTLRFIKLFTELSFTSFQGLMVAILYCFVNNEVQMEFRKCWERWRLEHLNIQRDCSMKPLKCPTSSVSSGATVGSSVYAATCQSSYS
The data set can be described thus: In vitro receptor binding assay using NIT-1 cells.

Data set [2] is described as follows: Aggregation observed during experiments. The class given is physicochemical. To be noted: lower concentrations during experiments.
In data set [3] the test system is trypsin.

In general, Kd refers to the equilibrium constant for the complex coming apart. A low value points to a tighter complex.

Non-standard residues stand in square brackets, D forms with d. Residues, ends and D or L forms follow the SMILES beside them. Aha = [N-]=[N+]=NCC[C@H](N)C(=O)O

On to `CC[C@H](C)[C@H](NC(=O)[C@H](Cc1ccccc1)NC(=O)[C@H](CCN=[N+]=[N-])NC(=O)[C@H](CCCCN)NC(=O)[C@H](C)NC(=O)[C@H](C)NC(=O)[C@H](CCC(N)=O)NC(=O)CNC(=O)[C@H](CCC(=O)O)NC(=O)[C@H](CCN=[N+]=[N-])NC(=O)[C@H](Cc1ccc(O)cc1)NC(=O)[C@H](CO)NC(=O)[C@H](CO)NC(=O)[C@@H](NC(=O)[C@H](CC(=O)O)NC(=O)[C@H](CO)NC(=O)[C@@H](NC(=O)[C@H](Cc1ccccc1)NC(=O)[C@@H](NC(=O)CNC(=O)[C@H](CCC(=O)O)NC(=O)[C@H](C)NC(=O)[C@@H](N)Cc1c[nH]cn1)[C@@H](C)O)[C@@H](C)O)C(C)C)C(=O)N[C@@H](C)C(=O)N[C@@H](Cc1c[nH]c2ccccc12)C(=O)N[C@@H](CC(C)C)C(=O)N[C@H](C(=O)N[C@@H](CCCCN)C(=O)NCC(=O)N[C@@H](CCCNC(=N)N)C(N)=O)C(C)C` [double mutant GLP-1] (H-HAEGTFTSDVSSY[Aha]EGQAAK[Aha]FIAWLVKGR-NH2), for which the Kd in data set [1] amounted to 5.6 nM. In data set [2], the aggregation entry is on record as “no aggregation was detected at lower concentrations”. Moreover, in data set [3], the “half-life slower than wild-type GLP-1” value was 1 to 2 orders of magnitude.
